# Earlier results, collected in US7691896B2, “Analogs of salinosporamide A” (President and Fellows of Harvard College, priority 2005, dated 2010).
# Peptide text beside a SMILES is read from it. * marks the point of attachment. Cbz = O=C(OCc1ccccc1)*
# System: PC12 cells
# Details: Tsubuki et al. 1993
smiles,measurement,value
CC(C)C[C@@H](C=O)NC(=O)[C@H](CC(C)C)NC(=O)[C@H](CC(C)C)NC(=O)OCc1ccccc1 [benzyloxycarbonyl (Z)-Leu-Leu-leucinal] (Cbz-Leu-Leu-Leu-aldehyde),optimal concentration inducing neurite outgrowth,30 nM
